According to patent US20160361252A1, “ANHYDROUS MULTIPHASE GEL SYSTEM” (priority 2005, published 2016):

Tested on: DNFB-induced allergic contact dermatitis
Assay: DNFB-induced contact dermatitis in mice (allergic contact dermatitis model)
Type: in vivo, mice (NMRI)
Conditions: ascrolimus applied in the EDR system, 0.1, 0.3, 1.0%, ear homogenates, 24 hours
Text: Various models can be used in order to determine the effectiveness and bioavailability of active substances as a function of the topical medication used. A suitable pharmacological model within the scope of anti-inflammatory therapy on the skin is represented by the “Irritant contact dermatitis (ICD)” model in mice. In this model, the inflammatory components of eczema are imitated. This inflammatory aspect likewise plays a role in allergic contact dermatitis and atopic dermatitis with the participation of allergen-specific T cells intrinsic to the skin. Therefore, a T-cell-dependent model of allergic contact dermatitis (in reaction to dinitrofluorobenzene, DNFB) can be utilized. Acute and chronic allergic contact dermatitis (ACD) is characterized by a type-1 dominated cytokine profile. Therefore, the ACD model induced by dinitrofluorobenzene (DNFB) was used in order to assess in vivo the activity of the active substance “ascrolimus” (topical immunomodulator). After sensitizing by means of DNFB, edema was produced by subsequent application of the same contact allergens and therefore, a cutaneous infiltration of allergenic T-cells and granulocytes was triggered. The mice (NMRI) were sensitized with 0.5% DNFB on day 0 and day 1. On day 5, the mice were again treated with 0.3% DNFB. […]

Q: Which “peroxidase activity as a measure for granulocyte infiltration (delta peroxidase, FIG. 5)” value does the source give for ascrolimus here?
A: significant concentration-dependent inhibition
